Test results taken from US11369615B2, “Agent for improving mitochondrial dysfunction, preventative or therapeutic agent for diseases or symptoms caused by mitochondrial dysfunction, and applications therefor” (JICHI MEDICAL UNIVERSITY, priority 2017, dated 2022).
Counter-ions that a name gives are not always drawn.

Legend:
[1] = stated as known; cited from earlier work
[2] = system: ME110 cells derived from a patient with MELAS; test: Oxidative stress test (BSO-induced cell death), ME110 cells; type: cell-based, human; settings: BSO plus agent 1 μM, 48 hours after addition
Source text: (§1) In mitochondrial dysfunction, for example, ATP production is damaged and/or oxidative stress increases, with the result that apoptosis of cells is induced. Because of this, individuals having mitochondrial dysfunction are reported to be less tolerant to oxidative stress, compared to normal individuals (Shrader W D et al., Bioorg Med Chem Lett., Jun. 15, 2011, Vol. 21 (12), p. 3693-8, doi: 10.1016/j.bmc1.2011.04.085. electronically published on Apr. 24, 2011, PubMed PMID: 21600768). Then, oxidative stress was given to the skin fibroblasts of individual patients mentioned above to induce apoptosis. Under the conditions, compounds of the drug library were each administered to the cells. In this manner, a primary screening was carried out. Then, candidate pharmaceutical agents selected by the primary screening were subjected to a secondary screening, which is an in-vitro evaluation test such as a mitochondrial function evaluation test and a microarray expression analysis.
(§2) The oxidative stress test is a known pharmaceutical agent screening method, which was carried out under the conditions where cell death was induced by addition of L-buthionine-(S,R)-sulfoximine (BSO) (Arce P M et al., ACS Med Chem Lett., May 31, 2011, Vol. 2 (8), p. 608-13, doi: 10.1021/m1200095w. eCollection, Aug. 11, 2011, PubMed PMID: 24900356; PubMed Central PMCID: PMC4018135). BSO inhibits synthesis of glutathione serving as an antioxidant in the cells to deplete glutathione, raising the level of active oxygen within the cells. The procedure of the test is as follows. The cells to be used in the test were seeded in a 96-well plate for cell culture so as to satisfy a concentration of 5,000 cells/well and 80 μL medium/well and cultured in a CO2 incubator (37° C., 5% CO2) for 24 hours. Twenty four hours after the culture, BSO and each of the pharmaceutical agents (final concentration of 1 μM) of the drug library were together added to the cells within the wells. Forty eight hours after the addition, survival rates were determined. The survival rates were determined by measuring absorbance of formazan generated by use of cell count reagent SF (Nacalai Tesque, Inc.). As a positive control compound, idebenone (Non Patent Literature 1) approved as a therapeutic agent for Leber's hereditary optic neuritis in Europe, was used in the same concentration.
(§3) An oxidative stress test was carried out by using three fibroblast cell lines derived from patients with a mitochondrial disease and provided in 1-2. The pharmaceutical agent showing the survival rate equal to or more than that of idebenone, a positive control compound, was determined to be effective. The results of oxidative stress test of pharmaceutical agents of the drug library to KCMC10 cells are shown in FIG. 2; the results of oxidative stress test of pharmaceutical agents of the drug library to ME54 cells are shown in FIG. 3; and the results of oxidative stress test of pharmaceutical agents of the drug library to ME110 cells are shown in FIG. 4.

KCMC10 cells = test: Evaluation test for mitochondrial function (extracellular flux analyzer, OCR), KCMC10 cells; type: cell-based, human; settings: 10 to 100 nM, 24 hours after addition, vs DMSO control
Description: (§4) An evaluation test for mitochondrial function including ATP production (capacity) was carried out by using an extracellular flux analyzer (XFe96, Primetech Corporation). Mitochondrial function can be evaluated by continuously measuring the oxygen consumption rate (OCR) of mitochondria during ATP synthesis by use of the extracellular flux analyzer while adding ATP synthase inhibitors (oligomycin, rotenone and antimycin A) and an uncoupler (carbonyl cyanide-p-trifluoromethoxy phenylhydrazone (FCCP)). The evaluation items to be analyzed were basal respiratory volume, ATP production (capacity) and maximum respiratory volume, which are major indexes for evaluating mitochondrial function. The test procedure is as follows. The cells to be used in the test were seeded in a 96-well plate for cell culture so as to satisfy a concentration of 20,000 cells/well and 80 μL medium/well and cultured in a CO2 incubator (37° C., 5% CO2) for 24 hours. Twenty four hours after the culture, each of the pharmaceutical agents (final concentration of 1,000, 100 or 10 nM) of the drug library or the same amount of dimethyl sulfoxide (DMSO) as a control was added to the cells within wells. Twenty minutes after the addition of the pharmaceutical agent, oligomycin (final concentration of 2 μM) was added. Fifty minutes after the addition of the pharmaceutical agent, FCCP (final concentration of 2 μM) was added. Eighty minutes after the addition of the pharmaceutical agent, rotenone and antimycin A (final concentration of 0.5 μM) were sequentially added. The oxygen consumption rate (OCR) was measured with time. Based on the measurement results 24 hours after the addition of the pharmaceutical agents of the drug library, basal respiratory volume, ATP production (capacity) and maximum respiratory volume were evaluated.
(§5) Reference symbols of ** and ***, which represent p values relative to the control (DMSO) calculated by Student's t-test, show […], respectively.

ME110 cells = test: Evaluation test for mitochondrial function (extracellular flux analyzer, OCR), ME110 cells; type: cell-based, human; settings: 10 nM, 24 hours after addition, vs DMSO control
Description: as §4, §5

[3] = system: ME54 cells derived from a patient with Leigh syndrome; test: Oxidative stress test (BSO-induced cell death), ME54 cells; type: cell-based, human; settings: BSO plus agent 1 μM, 48 hours after addition
Source text: as §1, §2, §3

[4] = system: KCMC10 cells derived from a patient with Leigh syndrome; test: Oxidative stress test (BSO-induced cell death), KCMC10 cells; type: cell-based, human; settings: BSO plus agent 1 μM, 48 hours after addition
Source text: as §1, §2, §3

[5] = system: KCMC10 cells derived from patients with Leigh syndrome; test: Microarray expression analysis
Description: Expression analysis by a microarray was carried out by use of SurePrint G3 Human Gene Expression 8×60K v3 of Agilent Technologies, Inc. To KCMC10 cells derived from patients with Leigh syndrome, BSO was added, to prepare a group of patients provided with oxidative stress. To the cells, BSO and each of the candidate pharmaceutical agents selected from the drug library were both added to prepare another group. In this manner, two samples per each group were prepared. RNA was extracted from each of the samples and subjected to expression analysis by a microarray.
In the tables, the value of Log 2 ratio between the two groups of 1 means that expression ratios differ twice, the value of Log 2 ratio of 2 means 4 times difference and the value of Log 2 ratio of 3 means 8 times difference.

[6] = KCMC10, BSO/agent vs BSO, Inflammatory cytokine
[7] = KCMC10, BSO/agent vs BSO, JAK-STAT signal pathway
[8] = KCMC10, BSO/agent vs BSO, Lymphocytic tissue homing receptor
[9] = KCMC10, BSO/agent vs BSO, MARK signal pathway
[10] = KCMC10, BSO/agent vs BSO, Proinflammatory effect
[11] = KCMC10, BSO/agent vs BSO, Table 4
[12] = KCMC10, BSO/agent vs BSO, WNT signal pathway
[13] = KCMC10, BSO/agent vs BSO, mTOR signal pathway
[14] = KCMC10 cells, BSO/agent addition group vs BSO addition group

CN1CCc2cccc3c2C1Cc1ccc(O)c(O)c1-3 (stereo not shown) [(I-1)]
ability to pass through the blood-brain barrier [1]: known to be able to pass through the blood-brain barrier

CN1CC2c3ccccc3Oc3ccc(Cl)cc3C2C1 (stereo not shown) [(I-2)]
ability to pass through the blood-brain barrier [1]: known to be able to pass through the blood-brain barrier

CN1CCc2cccc3c2[C@H]1Cc1ccc(O)c(O)c1-3 [Pharmaceutical agent No. 5, R(−)-Apomorphine hydrochloride hemihydrate]
survival rate equal to or more than that of idebenone (determined to be effective) [2]: effective | ATP production (capacity) (KCMC10 cells): significantly improved | basal respiratory volume (KCMC10 cells): significantly improved | maximum respiratory volume (KCMC10 cells): significantly improved | ATP production (capacity) (ME110 cells): significantly improved | basal respiratory volume (ME110 cells): significantly improved | maximum respiratory volume (ME110 cells): significantly improved | ability to pass through the blood-brain barrier [1]: known to be able to pass through the blood-brain barrier | survival rate equal to or more than that of idebenone (determined to be effective) [3]: effective | survival rate equal to or more than that of idebenone (determined to be effective) [4]: effective | Expression change (Increase/Decrease), CCL3 [5, 6]: Decrease | Expression change (Increase/Decrease), IL24 [5, 6]: Decrease | Expression change (Increase/Decrease), LIF [5, 6]: Decrease | Log 2 ratio between two groups, CCL3 [5, 6]: −2.98 | Log 2 ratio between two groups, IL24 [5, 6]: −1.77 | Log 2 ratio between two groups, LIF [5, 6]: −3.32 | Expression change (Increase/Decrease), BCL2A1 [5, 7]: Decrease | Expression change (Increase/Decrease), FHL1 [5, 7]: Increase | Expression change (Increase/Decrease), IL13RA2 [5, 7]: Decrease | Expression change (Increase/Decrease), SOCS2 [5, 7]: Increase | Expression change (Increase/Decrease), SOSC1 [5, 7]: Decrease | Log 2 ratio between two groups, BCL2A1 [5, 7]: −3.90 | Log 2 ratio between two groups, FHL1 [5, 7]: 1.01 | Log 2 ratio between two groups, IL13RA2 [5, 7]: −1.63 | Log 2 ratio between two groups, SOCS2 [5, 7]: 1.30 | Log 2 ratio between two groups, SOSC1 [5, 7]: −1.21 | Expression change (Increase/Decrease), CCL19 [5, 8]: Decrease | Log 2 ratio between two groups, CCL19 [5, 8]: −4.92 | Expression change (Increase/Decrease), DUSP6 [5, 9]: Decrease | Log 2 ratio between two groups, DUSP6 [5, 9]: −3.25 | Expression change (Increase/Decrease), IL12A [5, 10]: Decrease | Log 2 ratio between two groups, IL12A [5, 10]: −2.71 | Expression change (Increase/Decrease), CCL7 [5, 11]: Decrease | Expression change (Increase/Decrease), CSF3 [5, 11]: Decrease | Expression change (Increase/Decrease), CXCL2 [5, 11]: Decrease | Expression change (Increase/Decrease), CXCL3 [5, 11]: Decrease | Expression change (Increase/Decrease), CXCL8 [5, 11]: Decrease | Expression change (Increase/Decrease), MMP1 [5, 11]: Decrease | Log 2 ratio between two groups, CCL7 [5, 11]: −2.41 | Log 2 ratio between two groups, CSF3 [5, 11]: −5.58 | Log 2 ratio between two groups, CXCL2 [5, 11]: −2.68 | Log 2 ratio between two groups, CXCL3 [5, 11]: −3.72 | Log 2 ratio between two groups, CXCL8 [5, 11]: −4.34 | Log 2 ratio between two groups, MMP1 [5, 11]: −1.40 | Expression change (Increase/Decrease), DKK4 [5, 12]: Increase | Expression change (Increase/Decrease), FZD8 [5, 12]: Decrease | Expression change (Increase/Decrease), GBP [5, 12]: Increase | Expression change (Increase/Decrease), LEF1 [5, 12]: Decrease | Expression change (Increase/Decrease), SOST [5, 12]: Increase | Log 2 ratio between two groups, DKK4 [5, 12]: 1.66 | Log 2 ratio between two groups, FZD8 [5, 12]: −1.51 | Log 2 ratio between two groups, GBP [5, 12]: 2.11 | Log 2 ratio between two groups, LEF1 [5, 12]: −1.23 | Log 2 ratio between two groups, SOST [5, 12]: 1.70 | Expression change (Increase/Decrease), CAB39L [5, 13]: Decrease | Expression change (Increase/Decrease), DEPTOR [5, 13]: Increase | Expression change (Increase/Decrease), FECN [5, 13]: Decrease | Expression change (Increase/Decrease), PRR5 [5, 13]: Increase | Expression change (Increase/Decrease), RNF152 [5, 13]: Decrease | Expression change (Increase/Decrease), RPS6KA1 [5, 13]: Decrease | Expression change (Increase/Decrease), RRAGD [5, 13]: Decrease | Expression change (Increase/Decrease), SESN2 [5, 13]: Increase | Log 2 ratio between two groups, CAB39L [5, 13]: −1.37 | Log 2 ratio between two groups, DEPTOR [5, 13]: 2.11 | Log 2 ratio between two groups, FECN [5, 13]: −1.61 | Log 2 ratio between two groups, PRR5 [5, 13]: 4.19 | Log 2 ratio between two groups, RNF152 [5, 13]: −1.61 | Log 2 ratio between two groups, RPS6KA1 [5, 13]: −1.22 | Log 2 ratio between two groups, RRAGD [5, 13]: −2.27 | Log 2 ratio between two groups, SESN2 [5, 13]: 1.41 | number of genes showing a significant change in expression (expression ratio differs twice or more) [5, 14]: 475 types of genes | overall expression change of genes of the WNT-mTOR signal pathway (Table 3) [5, 14]: changed toward suppressing the WNT-mTOR signal pathway | overall expression change of genes related to cytokines or chemokines involved in inflammation or natural immunity (Table 4) [5, 14]: changed toward suppressing expression of the cytokines or chemokines

CN1CCN(CCCN2c3ccccc3Sc3ccc(Cl)cc32)CC1 [Pharmaceutical agent No. 35, Prochlorperazine dimaleate]
survival rate equal to or more than that of idebenone (determined to be effective) [2]: effective | ability to pass through the blood-brain barrier [1]: known to be able to pass through the blood-brain barrier | survival rate equal to or more than that of idebenone (determined to be effective) [3]: effective | survival rate equal to or more than that of idebenone (determined to be effective) [4]: effective

CN(C)CCCN1c2ccccc2Sc2ccccc21 [Pharmaceutical agent No. 56, Promazine hydrochloride]
survival rate equal to or more than that of idebenone (determined to be effective) [2]: effective | ability to pass through the blood-brain barrier [1]: known to be able to pass through the blood-brain barrier | survival rate equal to or more than that of idebenone (determined to be effective) [3]: effective | survival rate equal to or more than that of idebenone (determined to be effective) [4]: effective

CN1C[C@@H]2c3ccccc3Oc3ccc(Cl)cc3[C@H]2C1 [Pharmaceutical agent No. 105, Asenapine maleate]
survival rate equal to or more than that of idebenone (determined to be effective) [2]: effective | ability to pass through the blood-brain barrier [1]: known to be able to pass through the blood-brain barrier | survival rate equal to or more than that of idebenone (determined to be effective) [3]: effective | survival rate equal to or more than that of idebenone (determined to be effective) [4]: effective

Cc1cc2c(s1)Nc1ccccc1N=C2N1CCN(C)CC1 [Pharmaceutical agent No. 118, Olanzapine]
survival rate equal to or more than that of idebenone (determined to be effective) [2]: effective | survival rate equal to or more than that of idebenone (determined to be effective) [3]: effective | survival rate equal to or more than that of idebenone (determined to be effective) [4]: effective

c1ccc2c(c1)Nc1ccccc1S2 [Pharmaceutical agent No. 129, Phenothiazine]
survival rate equal to or more than that of idebenone (determined to be effective) [2]: effective | ability to pass through the blood-brain barrier [1]: known to be able to pass through the blood-brain barrier | survival rate equal to or more than that of idebenone (determined to be effective) [3]: effective | survival rate equal to or more than that of idebenone (determined to be effective) [4]: effective
